Results: ChEMBL document CHEMBL3991601, “The target landscape of clinical kinase drugs” (Science, 2017)
Activity calls are given as the source filed them.

Legend:
[1] = biological target: Mitotic checkpoint serine/threonine-protein kinase BUB1 (Homo sapiens, UniProt O43683)
[2] = biological target: T1, Probable ATP-dependent RNA helicase DDX6 (Homo sapiens, UniProt P26196)
T1 sequence (P26196 whole entry): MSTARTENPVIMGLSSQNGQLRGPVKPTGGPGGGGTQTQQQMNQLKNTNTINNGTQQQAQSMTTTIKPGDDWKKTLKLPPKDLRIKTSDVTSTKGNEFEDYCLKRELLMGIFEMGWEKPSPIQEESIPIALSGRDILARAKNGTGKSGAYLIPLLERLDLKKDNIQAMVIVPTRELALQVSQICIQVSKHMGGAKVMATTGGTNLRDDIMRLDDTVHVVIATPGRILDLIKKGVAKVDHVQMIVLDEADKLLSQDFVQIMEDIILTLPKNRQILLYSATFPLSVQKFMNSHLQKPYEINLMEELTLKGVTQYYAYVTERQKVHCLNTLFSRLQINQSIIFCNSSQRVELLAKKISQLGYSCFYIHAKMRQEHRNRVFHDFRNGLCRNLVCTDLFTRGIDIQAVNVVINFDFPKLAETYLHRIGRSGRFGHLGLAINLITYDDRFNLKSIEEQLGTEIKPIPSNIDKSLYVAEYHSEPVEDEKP

[3] = biological target: Putative heat shock protein HSP 90-beta 2 (Homo sapiens, UniProt Q58FF8)
Sequence of Putative heat shock protein HSP 90-beta 2 (Q58FF8 whole entry): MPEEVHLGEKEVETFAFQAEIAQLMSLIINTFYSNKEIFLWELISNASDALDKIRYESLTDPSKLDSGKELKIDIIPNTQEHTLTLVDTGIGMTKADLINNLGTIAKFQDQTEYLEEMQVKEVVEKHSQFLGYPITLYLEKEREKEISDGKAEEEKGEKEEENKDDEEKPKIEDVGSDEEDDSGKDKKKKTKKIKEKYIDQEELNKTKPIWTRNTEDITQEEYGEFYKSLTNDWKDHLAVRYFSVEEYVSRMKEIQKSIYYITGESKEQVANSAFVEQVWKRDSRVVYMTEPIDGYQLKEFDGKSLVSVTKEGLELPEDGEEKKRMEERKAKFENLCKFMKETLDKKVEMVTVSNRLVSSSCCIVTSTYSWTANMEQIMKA

[4] = biological target: T2, DNA replication licensing factor MCM4 (Homo sapiens, UniProt P33991)
T2 sequence (P33991 whole entry): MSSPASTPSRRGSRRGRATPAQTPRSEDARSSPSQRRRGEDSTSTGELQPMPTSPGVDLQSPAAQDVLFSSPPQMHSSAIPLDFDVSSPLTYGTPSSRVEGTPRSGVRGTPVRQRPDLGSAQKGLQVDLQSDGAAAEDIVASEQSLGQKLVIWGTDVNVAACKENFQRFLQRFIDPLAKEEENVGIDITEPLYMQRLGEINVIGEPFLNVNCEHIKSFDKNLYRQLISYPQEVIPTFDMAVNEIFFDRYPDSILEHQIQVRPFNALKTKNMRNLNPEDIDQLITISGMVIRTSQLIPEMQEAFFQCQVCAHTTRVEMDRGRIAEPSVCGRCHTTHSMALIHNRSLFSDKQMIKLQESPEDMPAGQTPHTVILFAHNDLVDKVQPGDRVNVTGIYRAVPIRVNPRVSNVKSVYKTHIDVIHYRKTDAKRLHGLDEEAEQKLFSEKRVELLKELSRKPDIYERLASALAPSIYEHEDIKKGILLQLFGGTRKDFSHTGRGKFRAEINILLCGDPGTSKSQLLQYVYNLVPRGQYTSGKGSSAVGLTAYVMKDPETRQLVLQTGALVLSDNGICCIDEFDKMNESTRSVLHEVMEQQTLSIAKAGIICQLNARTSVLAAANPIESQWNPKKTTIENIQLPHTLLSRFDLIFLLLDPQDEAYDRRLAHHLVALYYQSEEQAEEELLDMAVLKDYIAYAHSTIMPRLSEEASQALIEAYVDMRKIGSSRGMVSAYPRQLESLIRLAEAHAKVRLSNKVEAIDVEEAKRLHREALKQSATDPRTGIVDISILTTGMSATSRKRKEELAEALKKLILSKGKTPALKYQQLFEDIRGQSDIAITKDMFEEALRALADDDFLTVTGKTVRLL

Midasin = Midasin (Homo sapiens, UniProt Q9NU22)
[5] = biological target: T3, Serine/threonine-protein kinase Nek2 (Homo sapiens, UniProt P51955)
T3 sequence (P51955 whole entry): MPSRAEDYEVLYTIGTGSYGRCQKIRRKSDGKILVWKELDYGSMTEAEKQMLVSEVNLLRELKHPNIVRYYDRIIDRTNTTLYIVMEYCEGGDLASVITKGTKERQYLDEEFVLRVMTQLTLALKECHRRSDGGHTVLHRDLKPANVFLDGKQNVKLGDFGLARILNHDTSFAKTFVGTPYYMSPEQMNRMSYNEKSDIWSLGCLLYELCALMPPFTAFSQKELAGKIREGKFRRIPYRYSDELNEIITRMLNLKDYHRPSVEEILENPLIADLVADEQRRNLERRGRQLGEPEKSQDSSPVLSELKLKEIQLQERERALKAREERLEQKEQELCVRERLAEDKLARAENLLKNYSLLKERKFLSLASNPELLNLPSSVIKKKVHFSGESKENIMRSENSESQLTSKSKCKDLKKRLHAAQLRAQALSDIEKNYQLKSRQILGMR

[6] = biological target: T4, Ras-related protein Rab-27A (Homo sapiens, UniProt P51159)
T4 sequence (P51159 whole entry): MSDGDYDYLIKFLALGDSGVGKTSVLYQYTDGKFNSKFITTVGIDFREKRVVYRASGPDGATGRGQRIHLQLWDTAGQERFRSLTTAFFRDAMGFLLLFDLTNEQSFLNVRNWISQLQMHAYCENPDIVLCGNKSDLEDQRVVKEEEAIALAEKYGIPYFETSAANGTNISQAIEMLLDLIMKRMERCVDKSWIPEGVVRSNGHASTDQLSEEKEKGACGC

[7] = biological target: Proto-oncogene tyrosine-protein kinase Src (Homo sapiens, UniProt P12931)
Sequence of Proto-oncogene tyrosine-protein kinase Src (P12931 2-536 limits assumed): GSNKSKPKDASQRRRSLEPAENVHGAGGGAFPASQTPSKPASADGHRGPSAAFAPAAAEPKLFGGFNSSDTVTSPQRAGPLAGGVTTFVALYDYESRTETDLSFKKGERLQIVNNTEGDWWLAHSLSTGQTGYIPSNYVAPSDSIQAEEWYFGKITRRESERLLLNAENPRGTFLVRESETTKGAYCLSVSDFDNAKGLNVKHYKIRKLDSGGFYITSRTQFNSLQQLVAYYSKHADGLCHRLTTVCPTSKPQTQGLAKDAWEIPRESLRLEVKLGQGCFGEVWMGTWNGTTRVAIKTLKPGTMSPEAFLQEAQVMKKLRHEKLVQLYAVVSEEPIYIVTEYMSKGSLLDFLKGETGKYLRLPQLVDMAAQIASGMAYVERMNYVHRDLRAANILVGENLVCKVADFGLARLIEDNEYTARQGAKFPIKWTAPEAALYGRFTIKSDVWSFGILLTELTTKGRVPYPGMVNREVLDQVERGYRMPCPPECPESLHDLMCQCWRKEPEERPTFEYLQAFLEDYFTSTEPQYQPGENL

[8] = biological target: T5, Signal recognition particle receptor subunit alpha (Homo sapiens, UniProt P08240)
T5 sequence (P08240 whole entry): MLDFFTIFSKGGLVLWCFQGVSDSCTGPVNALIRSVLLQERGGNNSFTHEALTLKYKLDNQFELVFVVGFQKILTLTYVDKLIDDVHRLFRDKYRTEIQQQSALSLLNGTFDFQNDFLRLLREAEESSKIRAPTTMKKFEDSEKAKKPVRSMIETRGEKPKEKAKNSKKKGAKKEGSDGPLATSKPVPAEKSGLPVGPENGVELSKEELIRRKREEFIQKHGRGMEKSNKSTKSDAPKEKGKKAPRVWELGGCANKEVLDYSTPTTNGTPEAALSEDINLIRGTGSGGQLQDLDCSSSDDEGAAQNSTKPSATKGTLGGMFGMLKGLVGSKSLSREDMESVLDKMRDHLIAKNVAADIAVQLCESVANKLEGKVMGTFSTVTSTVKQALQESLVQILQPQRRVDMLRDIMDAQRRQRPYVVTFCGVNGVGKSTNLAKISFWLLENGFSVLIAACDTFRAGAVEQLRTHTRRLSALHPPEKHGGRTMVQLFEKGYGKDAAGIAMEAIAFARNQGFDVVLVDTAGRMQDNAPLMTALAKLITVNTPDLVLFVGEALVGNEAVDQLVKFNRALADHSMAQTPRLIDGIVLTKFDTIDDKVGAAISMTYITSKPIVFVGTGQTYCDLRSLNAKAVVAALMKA

Activated CDC42 kinase 1 = Activated CDC42 kinase 1 (Homo sapiens, UniProt Q07912)
Sequence of Activated CDC42 kinase 1 (Q07912 whole entry): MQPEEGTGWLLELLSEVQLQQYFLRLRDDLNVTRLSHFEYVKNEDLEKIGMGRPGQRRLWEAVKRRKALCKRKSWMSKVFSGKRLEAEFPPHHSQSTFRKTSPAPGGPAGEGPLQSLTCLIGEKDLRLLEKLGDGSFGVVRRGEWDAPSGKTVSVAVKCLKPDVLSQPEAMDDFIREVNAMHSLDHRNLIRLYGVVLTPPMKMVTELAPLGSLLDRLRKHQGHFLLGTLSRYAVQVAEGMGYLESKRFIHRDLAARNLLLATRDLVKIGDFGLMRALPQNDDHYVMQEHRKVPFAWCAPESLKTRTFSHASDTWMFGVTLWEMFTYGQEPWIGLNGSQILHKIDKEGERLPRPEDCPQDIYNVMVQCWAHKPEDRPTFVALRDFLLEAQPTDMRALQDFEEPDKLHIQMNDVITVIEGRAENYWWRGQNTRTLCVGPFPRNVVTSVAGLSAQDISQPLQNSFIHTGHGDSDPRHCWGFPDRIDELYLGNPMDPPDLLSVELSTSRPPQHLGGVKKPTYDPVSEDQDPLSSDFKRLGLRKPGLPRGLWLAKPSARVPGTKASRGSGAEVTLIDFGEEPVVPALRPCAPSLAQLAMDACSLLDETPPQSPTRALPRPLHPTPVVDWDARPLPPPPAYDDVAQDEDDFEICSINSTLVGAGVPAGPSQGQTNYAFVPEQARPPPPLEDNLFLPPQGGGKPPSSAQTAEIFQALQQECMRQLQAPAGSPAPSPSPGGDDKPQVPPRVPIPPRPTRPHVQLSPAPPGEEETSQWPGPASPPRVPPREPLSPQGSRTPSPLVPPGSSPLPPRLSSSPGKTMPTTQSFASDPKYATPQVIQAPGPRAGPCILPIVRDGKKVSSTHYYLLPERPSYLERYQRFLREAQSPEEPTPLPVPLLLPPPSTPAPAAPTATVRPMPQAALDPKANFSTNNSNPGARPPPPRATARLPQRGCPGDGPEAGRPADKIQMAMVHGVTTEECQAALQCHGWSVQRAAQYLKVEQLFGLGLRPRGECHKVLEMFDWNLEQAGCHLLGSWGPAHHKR
Also: in the data inactive means no Kd found up to 30 µM.

Sequence of Mitotic checkpoint serine/threonine-protein kinase BUB1 (O43683 whole entry): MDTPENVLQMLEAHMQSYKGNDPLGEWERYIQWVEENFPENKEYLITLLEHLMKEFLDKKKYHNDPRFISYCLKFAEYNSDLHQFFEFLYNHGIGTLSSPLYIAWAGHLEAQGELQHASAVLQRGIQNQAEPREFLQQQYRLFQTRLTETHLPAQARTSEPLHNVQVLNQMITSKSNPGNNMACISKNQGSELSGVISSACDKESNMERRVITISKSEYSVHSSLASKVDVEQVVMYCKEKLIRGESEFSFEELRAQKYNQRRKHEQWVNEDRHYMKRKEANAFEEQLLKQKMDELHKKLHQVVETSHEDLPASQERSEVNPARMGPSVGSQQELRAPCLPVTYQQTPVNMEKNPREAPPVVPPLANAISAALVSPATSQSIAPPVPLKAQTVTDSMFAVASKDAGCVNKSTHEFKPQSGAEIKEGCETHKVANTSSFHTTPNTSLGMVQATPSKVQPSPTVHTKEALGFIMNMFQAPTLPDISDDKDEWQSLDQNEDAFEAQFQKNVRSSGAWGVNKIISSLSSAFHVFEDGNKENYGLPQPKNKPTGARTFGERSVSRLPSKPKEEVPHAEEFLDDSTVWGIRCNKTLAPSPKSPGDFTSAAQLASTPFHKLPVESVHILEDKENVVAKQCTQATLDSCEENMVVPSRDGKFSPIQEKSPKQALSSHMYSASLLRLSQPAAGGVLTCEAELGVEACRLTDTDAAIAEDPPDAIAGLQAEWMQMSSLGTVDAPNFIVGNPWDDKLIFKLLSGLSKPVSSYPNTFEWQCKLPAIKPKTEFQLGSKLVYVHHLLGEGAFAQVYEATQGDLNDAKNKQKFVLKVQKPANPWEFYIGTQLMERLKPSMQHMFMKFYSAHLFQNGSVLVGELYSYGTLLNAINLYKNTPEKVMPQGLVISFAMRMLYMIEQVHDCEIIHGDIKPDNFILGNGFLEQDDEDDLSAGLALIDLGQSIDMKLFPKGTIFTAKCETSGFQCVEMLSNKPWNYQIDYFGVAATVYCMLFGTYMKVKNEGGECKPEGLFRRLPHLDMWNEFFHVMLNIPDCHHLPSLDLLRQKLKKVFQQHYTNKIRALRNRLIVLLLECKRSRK

| SMILES | Kd [1] | Kd [2] | Kd [3] | Kd [4] | Kd (Midasin) | Kd [5] | Kd [6] | Kd [7] | Kd [8] | Kd (Activated CDC42 kinase 1) |
| --- | --- | --- | --- | --- | --- | --- | --- | --- | --- | --- |
| COc1cc2ncnc3c2cc1OCCCCCN(C)Cc1ccc(Br)cc1N3 [JNJ-26483327] | > 30 µM (inactive) | > 30 µM (inactive) | > 30 µM (inactive) | > 30 µM (inactive) | > 30 µM (inactive) | > 30 µM (inactive) | > 30 µM (inactive) | > 30 µM (inactive) | > 30 µM (inactive) | > 30 µM (inactive) |
| CCc1cc2c(cc1N1CCC(N3CCOCC3)CC1)C(C)(C)c1[nH]c3cc(C#N)ccc3c1C2=O [ALECTINIB] | > 30 µM (inactive) | > 30 µM (inactive) | > 30 µM (inactive) | > 30 µM (inactive) | > 30 µM (inactive) | > 30 µM (inactive) | > 30 µM (inactive) | > 30 µM (inactive) | > 30 µM (inactive) | > 30 µM (inactive) |
| CNC(=O)c1cccc(-c2ccc3c(N4CCOC[C@@H]4C)nc(N4CCOC[C@@H]4C)nc3n2)c1 [VISTUSERTIB] | > 30 µM (inactive) | > 30 µM (inactive) | > 30 µM (inactive) | > 30 µM (inactive) | > 30 µM (inactive) | > 30 µM (inactive) | > 30 µM (inactive) | > 30 µM (inactive) | > 30 µM (inactive) | > 30 µM (inactive) |
| CC[C@@](C)(Nc1ccnc(-c2c[nH]c3ncccc23)n1)C(=O)NCC(F)(F)F [DECERNOTINIB] | > 30 µM (inactive) | > 30 µM (inactive) | > 30 µM (inactive) | > 30 µM (inactive) | > 30 µM (inactive) | > 30 µM (inactive) | > 30 µM (inactive) | > 30 µM (inactive) | > 30 µM (inactive) | > 30 µM (inactive) |
| Cc1cc(-c2cc(OC(=O)c3ccccc3)ccc2Cl)cc2nnc(Nc3ccc(OCCN4CCCC4)cc3)nc12 [TG100-801] | > 30 µM (inactive) | > 30 µM (inactive) | > 30 µM (inactive) | > 30 µM (inactive) | > 30 µM (inactive) | > 30 µM (inactive) | > 30 µM (inactive) | > 30 µM (inactive) | > 30 µM (inactive) | > 30 µM (inactive) |
| N#CCNC(=O)c1ccc(-c2ccnc(Nc3ccc(N4CCOCC4)cc3)n2)cc1 [MOMELOTINIB] | > 30 µM (inactive) | > 30 µM (inactive) | > 30 µM (inactive) | > 30 µM (inactive) | > 30 µM (inactive) | > 30 µM (inactive) | > 30 µM (inactive) | > 30 µM (inactive) | > 30 µM (inactive) | > 30 µM (inactive) |
| COc1cc(Nc2ncc(F)c(Nc3ccc4c(n3)N(COP(=O)(O)O)C(=O)C(C)(C)O4)n2)cc(OC)c1OC [FOSTAMATINIB] | > 30 µM (inactive) | > 30 µM (inactive) | > 30 µM (inactive) | > 30 µM (inactive) | > 30 µM (inactive) | > 30 µM (inactive) | > 30 µM (inactive) | > 30 µM (inactive) | > 30 µM (inactive) | > 30 µM (inactive) |
| C[C@@H]1COC(Nc2ccc3ncnc(Nc4ccc(OCc5nccs5)c(Cl)c4)c3c2)=N1 [VARLITINIB] | > 30 µM (inactive) | > 30 µM (inactive) | > 30 µM (inactive) | > 30 µM (inactive) | > 30 µM (inactive) | > 30 µM (inactive) | > 30 µM (inactive) | > 30 µM (inactive) | > 30 µM (inactive) | > 30 µM (inactive) |
| COCCN1CCN(Cc2ccc(-c3n[nH]c4c3C(=O)c3c(NC(=O)NN5CCOCC5)cccc3-4)cc2)CC1 [RGB-286638] | > 30 µM (inactive) | > 30 µM (inactive) | > 30 µM (inactive) | > 30 µM (inactive) | > 30 µM (inactive) | > 30 µM (inactive) | > 30 µM (inactive) | > 30 µM (inactive) | > 30 µM (inactive) | > 30 µM (inactive) |
| CNC(=O)c1ccc(Nc2ncc(C(F)(F)F)c(NCc3nccnc3N(C)S(C)(=O)=O)n2)cc1 [DEFACTINIB] | > 30 µM (inactive) | > 30 µM (inactive) | > 30 µM (inactive) | > 30 µM (inactive) | > 30 µM (inactive) | > 30 µM (inactive) | > 30 µM (inactive) | > 30 µM (inactive) | > 30 µM (inactive) | > 30 µM (inactive) |
| Cc1ccc(C(=O)Nc2ccc(Oc3cc4cnn(C)c4cc3-c3cn[nH]c3)c(F)c2)c(=O)n1-c1ccc(F)cc1 [MERESTINIB] | > 30 µM (inactive) | > 30 µM (inactive) | > 30 µM (inactive) | > 30 µM (inactive) | > 30 µM (inactive) | > 30 µM (inactive) | > 30 µM (inactive) | > 30 µM (inactive) | > 30 µM (inactive) | > 30 µM (inactive) |
| Cn1cc(-c2[nH]c3cc(NC(=O)[C@H](N)C4CCCCC4)cc4c3c2C=NNC4=O)cn1 | > 30 µM (inactive) | > 30 µM (inactive) | > 30 µM (inactive) | > 30 µM (inactive) | > 30 µM (inactive) | > 30 µM (inactive) | > 30 µM (inactive) | 1.4 µM (active) | > 30 µM (inactive) | > 30 µM (inactive) |
| NC(=O)c1ccc(N(C(N)=O)c2c(F)cccc2F)nc1-c1ccc(F)cc1F [VX-702] | > 30 µM (inactive) | > 30 µM (inactive) | > 30 µM (inactive) | > 30 µM (inactive) | > 30 µM (inactive) | > 30 µM (inactive) | > 30 µM (inactive) | > 30 µM (inactive) | > 30 µM (inactive) | > 30 µM (inactive) |
